“Also recorded” adds a separate entry of the source. Marks after values point to notes of the source that are not given here.
What was measured:
α-glucosidase (Yeast) [1] = experiment: Omission experiment (model, single polyphenol and recombinant solutions); assay type: biochemical; conditions: single polyphenol solution at its content in FSI extract (RU 3.40, QU 0.38, HY 0.34, QI 0.23, KA 0.23 mg/mL)
Description: (§1) The α-glucosidase inhibitory activity of the FSI samples was measured using the method described by Xiao et al., with minor modifications. Each sample solution (0.2 mL) was mixed with 1 mL of α-glucosidase (0.2 U/mL) of pH = 6.8 phosphate buffer solution. After incubation at 37 °C for 15 min, 0.5 mL of 5 mmol/L PNPG in phosphate buffer solution was added. The reaction was terminated by the addition of 1 mL of 0.1 mol/L sodium Na2CO3 […] at 37 °C for 15 min. The absorbance was measured at 405 nm. The α-glucosidase inhibitory activity was calculated using the following Equation (1):(1) α-Glucosidase inhibitory activity(%)=(ΔAcontrol−ΔAsample/ΔAcontrol)×100
Three different solutions were prepared based on different polyphenol fractions (RU (3.40 mg/mL), QU (0.38 mg/mL), HY (0.34 mg/mL), QI (0.23 mg/mL) and KA (0.23 mg/mL): (1) Model solution: a model solution based on the composition of FSI extract. (2) Single polyphenol solution: a component solution containing only a single polyphenol, prepared based on the polyphenol content in FSI extract. (3) Recombinant solution: a reconstituted solution consisting of the missing individual polyphenol. The α-glucosidase inhibitory activities of the model, single polyphenol and recombinant solutions were determined and the contribution of the missing polyphenols to α-glucosidase activity inhibition was calculated.

α-glucosidase (Yeast) [2] = experiment: α-glucosidase inhibitory activity (PNPG substrate, absorbance at 405 nm); assay type: biochemical; conditions: α-glucosidase 0.2 U/mL, pH 6.8, 37 °C
Description: as §1

α-glucosidase (Yeast) [3] = experiment: α-glucosidase inhibition type and kinetic analysis (Lineweaver–Burk); assay type: biochemical; conditions: for type of inhibition: Lineweaver–Burk plots; for Ki: binding to α-glucosidase, Lineweaver–Burk
Description: In 5 mL of the reaction system, different concentrations of PNPG (0.5 mL) were mixed with different concentrations of polyphenols (0.1 mL) in a warm bath at 37 °C for 5 min, α-glucosidase solution (1 mL) was added and the absorbance was recorded at 405 nm in real time. Lineweaver–Burk curve method using the inverse of the PNPG concentration 1/(s) as the horizontal coordinate and the inverse of the enzymatic reaction rate 1/v as the vertical coordinate, and the type of inhibition was determined from the characteristics of the graph.

α-glucosidase (Yeast) [4] = experiment: Fluorescence quenching (Stern–Volmer) and thermodynamic parameters; assay type: binding
Description: An equal volume of polyphenol solution (0.02 mg/mL) was added to 3 mL of α-glucosidase solution (0.05 mg/mL) in 9 separate additions of 10 μL each. The mixture was shaken and then placed in a warm bath at 37 °C for 15 min. The system was scanned for fluorescence at three temperatures (298 K, 303 K, 310 K) using an F-7000 fluorescence spectrometer (Hitachi, Tokyo, Japan) at an excitation wavelength of 280 nm and excitation and emission slits of 5 nm. The fluorescence was scanned in the range of 310–500 nm and the corresponding blank control fluorescence spectra were subtracted to calculate the fluorescence. The Stern–Volmer equation was used to calculate the fluorescence burst constants and determine the type of burst.
Therefore, the spontaneity and binding force of their interactions can be studied by calculating thermodynamic parameters. The values of the free energy change (ΔG), enthalpy change (ΔH) and entropy change (ΔS) can be calculated by Equations (5) and (6). (5) ΔG=[…]=ΔH−TΔS (6) lnKb2/Kb1=[…]ΔH×1/R where R = 8.314 J/(mol·K).

Structure (SMILES)	α-Glucosidase Inhibition Rate of Omitted Compounds (α-glucosidase (Yeast) [1]) [%]	IC50 (α-glucosidase (Yeast) [2])	type of inhibition (α-glucosidase (Yeast) [3]; listed as HY)	Ki (α-glucosidase (Yeast) [3]) [mM]	Ki (α-glucosidase (Yeast) [3]; listed as HY) [mM]	KSV (α-glucosidase (Yeast) [4]; 298 K) [L/mol]	Kq (α-glucosidase (Yeast) [4]; 298 K) [M⁻¹ s⁻¹]	KSV (α-glucosidase (Yeast) [4]; 303 K) [L/mol]	Kq (α-glucosidase (Yeast) [4]; 303 K) [M⁻¹ s⁻¹]	KSV (α-glucosidase (Yeast) [4]; 310 K) [L/mol]	Kq (α-glucosidase (Yeast) [4]; 310 K) [M⁻¹ s⁻¹]	type of inhibition (α-glucosidase (Yeast) [3]; listed as KA)	type of inhibition (α-glucosidase (Yeast) [3]; listed as QU)	type of inhibition (α-glucosidase (Yeast) [3]; listed as QI)	type of inhibition (α-glucosidase (Yeast) [3]; listed as RU)
O=c1c(O[C@@H]2O[C@H](CO)[C@H](O)[C@H](O)[C@H]2O)c(-c2ccc(O)c(O)c2)oc2cc(O)cc(O)c12 [Hyperoside, hyperoside]	75.00 ± 0.32	12.77 ± 0.07 ^d mg/mL	mixed type of inhibition; also recorded: mixed inhibitors	3.79	3.91	124300	1.243e+13	89600	8.96e+12	111700	1.117e+13	–	–	–	–
COc1cc(-c2oc3cc(O)cc(O)c3c(=O)c2O)ccc1O [Isorhamnetin, isorhamnetin]	–	255.00 ± 0.11 ^g mg/mL	–	15.1	–	–	–	–	–	–	–	–	–	–	–
O=c1c(O)c(-c2ccc(O)cc2)oc2cc(O)cc(O)c12 [Kaempferol, kaempferol]	81.00 ± 0.12	–	–	–	–	222300	2.223e+13	493300	4.933e+13	424600	4.246e+13	mixed type of inhibition; also recorded: mixed inhibitors	–	–	–
O=C(O)c1ccc(O)c(O)c1 [Protocatechuic acid, protocatechuic acid]	–	369.00 ± 0.11 ^h mg/mL	–	17.7	–	–	–	–	–	–	–	–	–	–	–
O=c1c(O)c(-c2ccc(O)c(O)c2)oc2cc(O)cc(O)c12 [Quercetin, quercetin]	89.00 ± 0.25	–	–	–	–	107100	1.071e+13	75200	7.52e+12	55500	5.55e+12	–	mixed type of inhibition; also recorded: mixed inhibitors	–	–
C[C@@H]1O[C@@H](Oc2c(-c3ccc(O)c(O)c3)oc3cc(O)cc(O)c3c2=O)[C@H](O)[C@H](O)[C@H]1O [Quercitrin, quercitrin]	77.00 ± 0.20	25.37 ± 0.13 ^e mg/mL	–	5.31	–	74500	7.45e+12	78700	7.87e+12	54500	5.45e+12	–	–	mixed type of inhibition; also recorded: mixed inhibitors	–
C[C@@H]1O[C@@H](OC[C@H]2O[C@@H](Oc3c(-c4ccc(O)c(O)c4)oc4cc(O)cc(O)c4c3=O)[C@H](O)[C@@H](O)[C@@H]2O)[C@H](O)[C@H](O)[C@H]1O [Rutin]	69.00 ± 0.11	–	–	–	–	45000	4.5e+12	93700	9.37e+12	93400	9.34e+12	–	–	–	mixed type of inhibition; also recorded: mixed inhibitors
